Assay results as given in a melting point compilation (Tetko et al.; mined from patent text by program, amines drawn as free bases though some values may be those of a salt).

Row | melting point | SMILES
1 | 154 to 155 °C | Cc1cc(=O)n2cccc(OCC=Cc3ccccc3)c2n1
2 | 129 to 136 °C | O=[N+]([O-])c1cccnc1N1CCc2ccccc2CC1
3 | 141 to 142 °C | CCOC(=O)c1sc2cc(OCc3ccccc3)ccc2c1S(=O)c1ccccc1 (stereo not given)
4 | 138 to 141 °C | CCOC(=O)c1cc(SC#N)c(-c2ccc(Cl)cc2)[nH]1
5 | 151 °C | O=C[C@H](OCc1ccccc1)[C@@H](OCc1ccccc1)[C@H](OCc1ccccc1)[C@H](O)COCc1ccccc1
6 | 82 to 84 °C | N#CC(=Cc1ccc2c(c1)OCO2)CN1CCOCC1
7 | 248 °C | O=C(c1ccc(F)cc1)C1CCN(CCn2c(=O)[nH]c3cc(F)ccc3c2=O)CC1
8 | 166 °C | CC(=O)OC1CSC(Oc2cncc(-c3c(C)nn(C)c3C)c2)C(OC(C)=O)C1OC(C)=O (stereo not given)
9 | 135 to 136 °C | CCCCCCOc1ccc2c(CC#N)c(OCCCCCC)ccc2c1CC#N
10 | 87 to 88 °C | c1ccc(NCP(CNc2ccccc2)CNc2ccccc2)cc1
11 | 278 to 279 °C | Cc1cc(C)c2nc(C)c(C(=O)O)c(-c3ccccc3Cl)c2c1
12 | 99 to 101 °C | CC(C)C(=O)N1CCC(CNc2ccc(Cl)cc2C(=O)Nc2ccc(Cl)cn2)CC1
13 | 52 to 54 °C | CC(C)(C)OC(=O)N1CC(CC=O)C1
14 | 113 to 114 °C | CC(C)(C)OC(=O)NCCON=C(C(=O)O)c1cccs1
15 | 129 to 130 °C | COc1ccc2[nH]cc(CC3=CCCN(CCCC(=NO)c4ccc(F)cc4)C3)c2c1
16 | 87 to 89 °C | CC1(C2C(=O)N(CC(F)(F)F)c3ccccc32)OCCO1 (stereo not given)
17 | 140 to 141 °C | C=C1CCC2C3CCC4CC(OC(C)=O)CCC4(C)C3C(=O)CC12C (stereo not given)
18 | 115 to 118 °C | CCn1c(C)c(C2(c3c(-c4ccc(OC)cc4)nc4sccn34)OC(=O)c3cccnc32)c2ccccc21 (stereo not given)
19 | 136 to 138 °C | CNC(=O)COc1cc(OC)ccc1O
20 | 66 to 68 °C | COc1ccc2c(c1)CCC(=CO)C2=O
21 | 160 to 164 °C | O=C(O)Cc1ccc(F)cc1Sc1ccc([N+](=O)[O-])cc1
22 | 125 to 128 °C | Cc1nc(N)nc(N)c1CCC(C)c1ccc(Cl)cc1 (stereo not given)
23 | 167 °C | COc1cc(-c2nc3ccc(OCCN4CCCCC4)cc3n2Cc2ccccc2C(F)(F)F)cc(OC)c1OC

Row | melting point | SMILES
24 | 143 to 145 °C | Cc1cccc(Nc2cc(Nc3cccc(OCC4CO4)c3)ncn2)c1 (stereo not given)
25 | 121 °C | COc1ccc(CCN(C)C(=O)COc2ccc([N+](=O)[O-])cc2)cc1OC
26 | 41 to 42 °C | CCCCCCCCCCCCCCCCCCCC(C)=O
27 | 168 to 171 °C | CC(=O)N(O)C(C)c1ccc2c(c1)Cc1ccccc1-2 (stereo not given)
28 | 120 to 130 °C | COc1ccc(CN(C)CCCSc2ccc(NC(=O)c3cccc4c(=O)c5cccc(F)c5[nH]c34)cc2)cc1OC
29 | 228 to 229 °C | O=c1oc(-c2ccccc2)cc(O)c1Sc1cccc(C(F)(F)F)c1
30 | 128 to 130 °C | C=C1CCC2C3CCc4cc(O)c(C=O)cc4C3CCC12C (stereo not given)
31 | 105 to 110 °C | CCOC(=O)c1c(N2CCN(C(=O)c3cccs3)CC2)c2cccnc2n(Cc2ccccc2F)c1=O
32 | 200 to 201 °C | COc1nc2c(cc1NC(=S)N1CCN(c3cc(C)cc(C)c3)CC1)CCCC2
33 | 128 to 130 °C | O=C1O[C@@H](CNC(=S)C(F)F)CN1c1ccc(N2CCCS(=O)(=O)CC2)c(F)c1
34 | 132 to 134 °C | CC(C)(CC(=O)C(=O)Nc1ccc2c(c1)COC2=O)c1ccccc1
35 | 88 to 90 °C | O=CNc1cccc(C(=NOC(=O)C(Cl)Cl)C(=O)O)n1
36 | 191 to 192 °C | N#CCc1ccc(Nc2nc(OCC3CCCCC3)c3[nH]cnc3n2)cc1
37 | 94 to 98 °C | CCN1CS(=O)c2cccc(Cl)c21 (stereo not given)
38 | 232 to 233 °C | Cn1c(=O)c(-c2ccc(Cl)cc2Cl)cc2c3cc(-c4ncco4)ccc3n(C)c21
39 | 80 °C | COc1cc(C)nc(S(C)(=O)=O)n1
40 | 111 to 114 °C | COC(=O)c1ccc(Cn2c(C=Cc3ccc(OC)c(OC)c3)nc3c(OC)c(C)c(C)c(OC)c32)cc1
41 | 220 to 225 °C | COc1ccc(C(=CC(=O)N2CCOCC2)c2ccc(NC(=O)NS(=O)(=O)c3ccc(C)cc3)cc2)cc1OC
42 | 187 to 188 °C | CCCn1c(=O)c2c(nc(/C=C/c3ccc(O)c(OC)c3)n2C)n(CCC)c1=O
43 | 72 to 74 °C | COC(=O)C(=Cc1ccc(F)c(Cl)c1)N=[N+]=[N-]
44 | 103 to 104 °C | COc1ccc(OCC(O)CNCCNc2c(C)c(=O)n(C)c(=O)n2C)cc1OC (stereo not given)
45 | 148 to 150 °C | O=C1CCN(Cc2ccccc2)C(=O)C1=C1SCCS1
46 | 71 to 75 °C | CCCCN(C)C(=O)CCCCCCCCCCSC1Cc2cc(O)ccc2C2CCC3(C)C(O)CCC3C12 (stereo not given)

Row | melting point | SMILES
47 | 225 to 227 °C | O=C(O)c1ccc(-c2nc(-c3ccccc3C(F)(F)F)cs2)cc1
48 | 194 to 196 °C | O=S(=O)(Cc1ccc(O)cc1)Nc1ncc(-c2ccc(O)cc2)nc1Cc1ccccc1
49 | 171 to 173 °C | O=Cc1ccc2c(c1)Cc1cccnc1O2
50 | 88 to 90 °C | CC(NC(=O)OC(C)(C)C)c1cc(F)c(N)c(I)c1 (stereo not given)
51 | 140 to 142 °C | CCC(COC)n1cc(Cl)nc(N2CCc3cc(OC)c(F)c(Cl)c32)c1=O (stereo not given)
52 | 106 to 107 °C | CC(C)OC(=O)C(=C1SCCS1)c1ccc(F)cc1
53 | 136 °C | CCCN(CCN1CCN(c2ccccc2OC)CC1)C1CCc2ncsc2C1 (stereo not given)
54 | 150 to 152 °C | CCOCOC1=C(c2cc(C)ccc2C)C(=O)NC12CCN(OC)CC2
55 | > 225 °C | NCc1cc2cc(Cl)cc(-c3ccccc3)c2o1
56 | 216 to 218 °C | CC(=O)Nc1nc(CCc2ccc(NC(=N)NN)cc2)cs1
57 | 180 °C | CCCCc1nc(Cl)c(CC(=O)O)c(Cc2ccc(-c3ccccc3-c3nnn[nH]3)cc2)n1
58 | 83 to 93 °C | COc1cc(OC)nc(-c2ccc(-c3ccccc3S(=O)(=O)Nc3onc(C)c3C)cc2)n1
59 | 60 to 78 °C | COC(=O)c1cc(NC(=O)OC(C)(C)C)c(N)cc1I
60 | 91 to 92 °C | c1ccc([C@H]2OC2(c2ccccc2)c2ccccc2)cc1
61 | 130 to 140 °C | O=C(O)Cc1ccc(N(C(=O)C(COC2CCCCO2)NS(=O)(=O)c2ccc3ccccc3c2)c2ccc(CC(=O)O)cc2)cc1 (racemic)
62 | 187 to 188 °C | COc1cc(OC)nc(C2(C#N)OC(=O)c3c(-c4cccs4)ccnc32)n1 (stereo not given)
63 | 128 to 130 °C | Cc1nc2cccc(S(=O)(=O)n3c(COC(C)(C)C(=O)O)cc4cc(Cl)ccc43)c2s1
64 | 280 to 282 °C | O=S1(=O)N=C(NC2CCCC2)Nc2sc(Cl)cc21
65 | 210 to 212 °C | CC1=C(c2ccc(Cl)cc2)n2ncc(C(N)=O)c2NC1
66 | 103 to 104 °C | CSc1noc(C2CC2)c1C(=O)c1ccc(C(F)(F)F)nc1C
67 | 306 to 308 °C | Nc1ccc2c(c1)C(=O)N(c1cccc(C(=O)O)c1)C2=O

Row | SMILES | melting point
68 | CCOC(=O)c1ncn2c1[C@@H]1CCN1C(=O)c1cc(F)ccc1-2 | 226 to 227 °C
69 | CN1C[C@H](CN2CCN(C(c3ccccc3)c3ccccc3)CC2)C=C2c3cccc4[nH]cc(c34)C[C@H]21 | > 200 °C
70 | Cc1cccc2c(Nc3cccc(OCCCCN(CCCl)CCCl)c3)c3cccc(C(=O)NCCN(C)C)c3nc12 | 131 to 132 °C
